Experiments:
Assay type in all cases: in vivo
Details in all cases: 50 ppm, 100 = 100% disease control, 0 = no control
[1] = system: Septoria tritici; experiment: Test A: wheat leaf blotch, preventive spray on wheat seedlings
Summary of the method: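 Wheat seedlings sprayed to run-off with compound suspended in acetone/water with 250 ppm PEG400 surfactant, inoculated next day with Septoria tritici spores. Held 48 h saturated at 24 °C, then 17 days at 20 °C; disease rated 0–100% control relative to controls.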

[2] = system: Phakopsora pachyrhizi; experiment: Test D: Asian soybean rust, preventive spray on soybean seedlings
Summary of the method: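 Compounds in acetone/water (50/50) with 250 ppm PEG400, dosed in ppm, sprayed to run-off on soybean seedlings; inoculated with P. pachyrhizi spores next day. Held 24 h at 22 °C in saturated air, then 8 days at 22 °C; visual rating of disease control, 0–100, relative to untreated controls.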

[3] = system: Alternaria solani; experiment: Test F: tomato early blight, preventive spray on tomato seedlings
Summary of the method: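 Tomato seedlings were sprayed to run-off with compound suspended in acetone/water (50/50) with 250 ppm PEG400 and inoculated with Alternaria solani spores the next day. Plants were held 48 h at 27 °C in saturated humidity, then 3 days at 20 °C. Disease control was rated visually from 0 to 100 against untreated controls.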

[4] = system: Puccinia recondita f. sp. tritici; experiment: Test B: wheat leaf rust, preventive spray on wheat seedlings
Summary of the method: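 Wheat seedlings were sprayed to run-off with compound suspended at ppm concentrations in acetone/water containing 250 ppm PEG400. The next day they were inoculated with Puccinia recondita f. sp. tritici spores, held saturated at 20 °C for 24 h, then kept 7 days at 20 °C. Disease control was rated 0–100% relative to untreated controls.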

[5] = system: Blumeria graminis f. sp. tritici; experiment: Test C: wheat powdery mildew, preventive spray on wheat seedlings
Summary of the method: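 Seedlings were sprayed to run-off with compound suspended (ppm) in 50/50 acetone–water containing 250 ppm PEG400, then spore-dust inoculated the following day. After 8 days at 20° C, disease control was rated visually from 0 to 100 against controls.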

[6] = system: Botrytis cinerea; experiment: Test E: tomato Botrytis, preventive spray on tomato seedlings
Summary of the method: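 Compound suspended in 50/50 acetone/water with 250 ppm PEG400 surfactant and sprayed to run-off on tomato seedlings; Botrytis cinerea spores applied the next day. Incubation 48 h at 20° C in saturated atmosphere, then 3 days at 24° C. Visual rating 0–100% disease control relative to controls.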

| SMILES | Test A disease control rating [1] | Test D disease control rating [2] | Test F disease control rating [3] | Test B disease control rating [4] | Test C disease control rating [5] | Test E disease control rating [6] |
| --- | --- | --- | --- | --- | --- | --- |
| Cc1nn(C)c(Nc2c(F)cc(Br)cc2[N+](=O)[O-])c1-c1ccc(C#N)cc1Cl [compound 155] | 99% | 0% | 93% | 99% | 90% | 100% |
| Cc1cc(Cl)c(Nc2c(-c3ccc(C#N)cc3Cl)c(C)nn2C)c([N+](=O)[O-])c1 [compound 156] | 91% | 0% | 0% | 91% | 66% | 0% |
| Cc1cccc([N+](=O)[O-])c1Nc1c(-c2ccc(C#N)cc2Cl)c(C)nn1C [compound 157] | 100% | 0% | 0% | 97% | 76% | 9% |
| Cc1nn(C)c(Nc2c(Cl)cccc2[N+](=O)[O-])c1-c1c(F)cc(F)cc1F [compound 158] | 99% | 87% | 83% | 100% | 99% | 99% |
| COc1ccc(Nc2c(-c3c(F)cc(F)cc3F)c(C)nn2C)c([N+](=O)[O-])c1 [compound 159] | 100% | 13% | 99% | 100% | 100% | 99% |
| COc1cc(F)c(-c2c(C)nn(C)c2Nc2c(Cl)cccc2[N+](=O)[O-])c(F)c1 [compound 160] | 98% | 86% | 99% | 100% | 96% | 100% |
| COc1cc(F)c(-c2c(C)nn(C)c2Nc2ccc(OC)cc2[N+](=O)[O-])c(F)c1 [compound 161] | 100% | 0% | 99% | 100% | 100% | 100% |
| COc1cc(F)c(-c2c(C)nn(C)c2Nc2c(C)cccc2[N+](=O)[O-])c(F)c1 [compound 162] | 100% | 77% | 98% | 100% | 99% | 97% |
| Cc1nn(C)c(Nc2c(Cl)cccc2[N+](=O)[O-])c1-c1c(F)cc(F)cc1Br [compound 163] | 99% | 78% | 76% | 100% | 98% | 88% |
| COc1ccc(Nc2c(-c3c(F)cc(F)cc3Br)c(C)nn2C)c([N+](=O)[O-])c1 [compound 164] | 100% | 0% | 99% | 100% | 98% | 100% |
| COc1cc(F)c(Nc2c(-c3ccc(F)cc3Br)c(C)nn2C)c([N+](=O)[O-])c1 [compound 165] | 99% | 94% | 100% | 100% | 98% | 100% |
| COc1cc(F)c(Nc2c(-c3ccc(C#N)cc3Cl)c(C)nn2C)c([N+](=O)[O-])c1 [compound 166] | 99% | 98% | 100% | 100% | 98% | 99% |
| Cc1cccc([N+](=O)[O-])c1Nc1c(-c2c(F)cc(F)cc2F)c(C)nn1C [compound 167] | 100% | 65% | 98% | 100% | 98% | 95% |
| Cc1nn(C)c(Nc2ccccc2[N+](=O)[O-])c1-c1c(F)cc(Cl)cc1F [compound 168] | 100% | 0% | 40% | 74% | 97% | 99% |
| Cc1cccc([N+](=O)[O-])c1Nc1c(-c2c(F)cc(F)cc2Br)c(C)nn1C [compound 169] | 100% | 0% | 0% | 100% | 100% | 98% |
| CCc1nn(C)c(Nc2c(F)cccc2[N+](=O)[O-])c1-c1c(F)cc(Cl)cc1F [compound 170] | 100% | 0% | 99% | 99% | 99% | 100% |
| CCc1nn(C)c(Nc2c(F)cc(Br)cc2[N+](=O)[O-])c1-c1ccc(F)cc1F [compound 171] | 100% | 0% | 88% | 91% | 99% | 97% |
| CCc1nn(C)c(Nc2ccc(OC)cc2[N+](=O)[O-])c1-c1ccc(F)cc1Cl [compound 173] | 100% | 0% | 93% | 100% | 98% | 98% |
| CCc1nn(C)c(Nc2ccc(C)cc2[N+](=O)[O-])c1-c1ccc(F)cc1Cl [compound 174] | 100% | 0% | 39% | 95% | 92% | 99% |
| CCc1nn(C)c(Nc2ccc(C)cc2[N+](=O)[O-])c1-c1ccc(F)cc1F [compound 175] | 100% | 0% | 0% | 86% | 79% | 88% |
| Cc1nn(C)c(Nc2c(Cl)cc(F)cc2[N+](=O)[O-])c1-c1ccc(Cl)cc1F [compound 176] | 100% | 0% | 0% | 97% | 0% | 9% |

From patent US20230148599A1, “FUNGICIDAL MIXTURES CONTAINING PYRAZOLE DERIVATIVES” (FMC Corporation, priority 2020, published 2023)
